{
  "source": "patent US8940865B2",
  "about": "“Myocardial peptide, preparation method and uses thereof” (Dalian Zhen-Ao Pharmaceutical Co, Ltd., priority 2008, dated 2015)",
  "key": {"[1]": {"test_system": "primary culture myocardium cell damaged by hypoxia/reoxygenation", "test": "Anti-hypoxia/reoxygenation injury effect on primary culture myocardium cell (MTT)", "format": "cell-based, Neonatal SD rat", "description": "Take ventricle from Neonatal SD rat, wash with D-Hank's and cut to small pieces, digest with collagenase II to obtain the myocardium cell and fibroblast, which are cultivated with high glucose DMEM (dmem-h-15) culture medium containing 15% fetal bovine serum. Remove the fibroblast through differential adhesion and chemistry method, and inoculate myocardium cell on the 96-well plates.\n2.1.3 Anti-Hypoxia/Reoxygenation Injury Effect of CMPC to Primary Culture Myocardium Cell.\nCell cultivation method is the same as that in 2.1.1\nPreparation of model: Preparing the model by using the myocardium cell cultured for 48˜72 h, dividing the cell on the culture plate to following groups: Control Group, Model Group, Verapamil Group (2, 0.4, 0.08 mg/l final concentration) and CMPM Group (final concentration of 50, 10, 2, 0.4, 0.08, 0.016, 0.0032 mg/l), 3 wells for every group. Except the Control Group, the other groups are prepared by following method: placing the monolayer myocardium cell on center of culture plate on low glucose medium (containing Verapamil or CMPM with corresponding concentration), then placing the culture plate into the vacuum drying machine, filling nitrogen, and hermetically culturing, causing myocardial injury after oxygen lack for 15 hours, then being cultured for 1 hour by high glucose DMEM medium (95% atmosphere and 5% CO2) to cause reoxygention injury. Measuring the absorbance value at 540 nm by using MTT method, and the same as above, calculating the protective rate to figure out EC50."}, "[2]": {"test_system": "primary culture myocardium cell damaged by adriamycin", "test": "Effect of CMPC against adriamycin injury of primary culture myocardium cell (MTT)", "format": "cell-based, Neonatal SD rat", "method": "Remove the fibroblast through differential adhesion and chemistry method, and inoculate myocardium cell on the 96-well plates.\n2.1.2 The Against Function of Cmpc to Injury of Adriamycin to Primary Culture Myocardium Cell.\nCell culture method is the same as 2.1.1\nPreparation of model: Blank Control Group: cultivating myocardium cell with DMEM-H-15;\nModel Group: adding 1 mg/L adriamycin, washing the plate with DMEM-H-15 two times after being cultivated for 1 h, adding DMEM-H-15 for cultivation;\nProtective rate=(Ax−Amodel)/(Acontrol−Amodel)×100%;\n(Ax, Amode, Acontrol respectively represent Absorbance value of Drug administration groups, Model Group and Blank control group."}, "[3]": {"test_system": "ischemia/reperfusion damaged rat", "test": "Therapeutic administration, ischemia/reperfusion (LAD ligation) rat model", "format": "in vivo, SD rat", "details": "therapeutic i.v. 5 minutes after ligation, Dosage 1.0 mg/kg", "method": "(§1) Intraperitoneal injecting 6% Urethane with 20 ml/kg to anaesthetize the animal, fixing the animal on operating table in supine position; being connected with the electrocardiograph to detect the limb II lead electrocardiogram, tracheal intubating and connecting the animal with respirators, taking continuous positive end-expiratory pressure with tidal volume of 6 ml/200 g, frequency of 55/min and breathing ratio of 2:1. Carrying out thoracotomy on the gap between the forth and the fifth ribs of the left border of sternum, separating the ribs and removing the pericardium. Ligating at the left anterior descending coronary artery by using 6/0 silk suture by the sign of left auricle lower margin, and setting a piece of polyethylene pipe with diameter of 1 mm between the ligation silk suture and blood vessel. Ligating the silk suture to press the left anterior descending coronary artery by the polyethylene pipe and cause myocardial ischemia. Taking part of myocardium becoming grey and electrocardiogram S-T segment raising as the sign of that the left anterior descending coronary artery is ligated successfully. Taking out the polyethylene pipe carefully to cause the reperfusion. Verifying the success of reoxygenation by reactive hyperemia of ischemia area and the descending of the raised S-T segment by ½. Reoxygenation for 30 minutes, then sampling blood from abdominal aorta to prepare serum which is used to measure the biochemical index (measuring the content of CK, LDH, MDA, SPD according to the Reagent kits Instruction).\n(§2) Rat's heart was taken and after being blooded, the residual blood in the ventricle was cleaned by normal saline to weight the weight of whole heart. Fat was removed, the heart was crosscut into 4˜5 pieces and was put into a tube, to be carried out NBT dye at 37° C. (dying the normal tissue rather than the ischemic tissue), taking photographs. The ischemic area of the myocardium was cut to take a weighing, and then the myocardial infarct size (MIS) was calculated by the ratio of weight of the ischemic area of the myocardium to whole heart weight, which was present by percentage.\nThe drug was intravenously injured on the tail 5 minutes after ligation of LAD, then reperfusion was carried out for 30 min 30 minutes after ligation of LAD. Heart was taken after sampling blood from abdominal aorta. The biochemical index and the myocardial infarction size were measure by using the above method."}, "[4]": {"test_system": "ischemia/reperfusion damaged rat", "test": "Preventive administration, ischemia/reperfusion (LAD ligation) rat model", "format": "in vivo, SD rat", "details": "preventive i.v. 30 min before ligation, Dosage 1.0 mg/kg", "method": "70 SD rats (250˜300 g per rat) were taken, wherein, 60 rats were divided into 6 groups evenly and randomly according to weight, every 10 of each group, the remains are kept for replacement of dead animals of each group.\nNormal Control Group: carrying out sham operation, threading a silk suture through the left anterior descending coronary artery (LAD) without ligation;\nModel Group: intravenous injecting saline solution of 5 ml/kg 30 minutes before ligation, and the preparation of hypoxia/reoxygenation model is the same as Normal Control Group;\nPositive Control Group: intravenous injecting Verapamil of 1 ml/kg 30 min before ligation, preparation of the hypoxia/reoxygenation model is the same as Normal Control Group. […]\nPreparation of the Model:\nas §1, §2"}},
  "data": [
    {"smiles": "COc1ccc(CCN(C)CCCC(C#N)(c2ccc(OC)c(OC)c2)C(C)C)cc1OC", "note": "(stereo not shown) [Positive Control Group, Verapamil, reference compound]", "values": [
      {"measurement": "% (protective rate)", "setting": "[1]; Plate 1, Dosage 0.08 mg/L", "result": 14.16, "unit": "%"},
      {"measurement": "A540", "setting": "[1]; Plate 1, Dosage 0.08 mg/L", "result": "0.524 ± 0.036"},
      {"measurement": "% (protective rate)", "setting": "[1]; Plate 1, Dosage 0.4 mg/L", "result": 20.15, "unit": "%"},
      {"measurement": "A540", "setting": "[1]; Plate 1, Dosage 0.4 mg/L", "result": "0.541 ± 0.029"},
      {"measurement": "% (protective rate)", "setting": "[1]; Plate 1, Dosage 2 mg/L", "result": 12.87, "unit": "%"},
      {"measurement": "A540", "setting": "[1]; Plate 1, Dosage 2 mg/L", "result": "0.520 ± 0.060"},
      {"measurement": "% (protective rate)", "setting": "[1]; Plate 2, Dosage 0.08 mg/L", "result": 23.85, "unit": "%"},
      {"measurement": "A540", "setting": "[1]; Plate 2, Dosage 0.08 mg/L", "result": "0.553 ± 0.031"},
      {"measurement": "% (protective rate)", "setting": "[1]; Plate 2, Dosage 0.4 mg/L", "result": 33.18, "unit": "%"},
      {"measurement": "A540", "setting": "[1]; Plate 2, Dosage 0.4 mg/L", "result": "0.579 ± 0.028"},
      {"measurement": "% (protective rate)", "setting": "[1]; Plate 2, Dosage 2 mg/L", "result": 29.63, "unit": "%"},
      {"measurement": "A540", "setting": "[1]; Plate 2, Dosage 2 mg/L", "result": "0.569 ± 0.029"},
      {"measurement": "% (protective rate)", "setting": "[1]; Plate 3, Dosage 0.08 mg/L", "result": 30.62, "unit": "%"},
      {"measurement": "A540", "setting": "[1]; Plate 3, Dosage 0.08 mg/L", "result": "0.787 ± 0.020"},
      {"measurement": "% (protective rate)", "setting": "[1]; Plate 3, Dosage 0.4 mg/L", "result": 35.44, "unit": "%"},
      {"measurement": "A540", "setting": "[1]; Plate 3, Dosage 0.4 mg/L", "result": "0.795 ± 0.022"},
      {"measurement": "% (protective rate)", "setting": "[1]; Plate 3, Dosage 2 mg/L", "result": 41.37, "unit": "%"},
      {"measurement": "A540", "setting": "[1]; Plate 3, Dosage 2 mg/L", "result": "0.805 ± 0.018"},
      {"measurement": "% (protective rate)", "setting": "[2]; Plate 1, Dosage 0.08 mg/L", "result": 31.53, "unit": "%"},
      {"measurement": "A540", "setting": "[2]; Plate 1, Dosage 0.08 mg/L", "result": "0.694 ± 0.110"},
      {"measurement": "% (protective rate)", "setting": "[2]; Plate 1, Dosage 0.4 mg/L", "result": 50.23, "unit": "%"},
      {"measurement": "A540", "setting": "[2]; Plate 1, Dosage 0.4 mg/L", "result": "0.714 ± 0.021"},
      {"measurement": "% (protective rate)", "setting": "[2]; Plate 1, Dosage 2 mg/L", "result": 46.83, "unit": "%"},
      {"measurement": "A540", "setting": "[2]; Plate 1, Dosage 2 mg/L", "result": "0.710 ± 0.099"},
      {"measurement": "% (protective rate)", "setting": "[2]; Plate 2, Dosage 0.08 mg/L", "result": 30.45, "unit": "%"},
      {"measurement": "A540", "setting": "[2]; Plate 2, Dosage 0.08 mg/L", "result": "0.749 ± 0.031"},
      {"measurement": "% (protective rate)", "setting": "[2]; Plate 2, Dosage 0.4 mg/L", "result": 30.29, "unit": "%"},
      {"measurement": "A540", "setting": "[2]; Plate 2, Dosage 0.4 mg/L", "result": "0.749 ± 0.050"},
      {"measurement": "% (protective rate)", "setting": "[2]; Plate 2, Dosage 2 mg/L", "result": 46.68, "unit": "%"},
      {"measurement": "A540", "setting": "[2]; Plate 2, Dosage 2 mg/L", "result": "0.767 ± 0.045"},
      {"measurement": "% (protective rate)", "setting": "[2]; Plate 3, Dosage 0.08 mg/L", "result": 30.09, "unit": "%"},
      {"measurement": "A540", "setting": "[2]; Plate 3, Dosage 0.08 mg/L", "result": "0.755 ± 0.021"},
      {"measurement": "% (protective rate)", "setting": "[2]; Plate 3, Dosage 0.4 mg/L", "result": 37.28, "unit": "%"},
      {"measurement": "A540", "setting": "[2]; Plate 3, Dosage 0.4 mg/L", "result": "0.770 ± 0.012"},
      {"measurement": "% (protective rate)", "setting": "[2]; Plate 3, Dosage 2 mg/L", "result": 36.18, "unit": "%"},
      {"measurement": "A540", "setting": "[2]; Plate 3, Dosage 2 mg/L", "result": "0.768 ± 0.013"},
      {"measurement": "CK", "setting": "[3]; rat serum", "result": "1.777 ± 0.389", "unit": "U/ml"},
      {"measurement": "LDH", "setting": "[3]; rat serum", "result": "6791.96 ± 570.85", "unit": "U/L"},
      {"measurement": "MDA", "setting": "[3]; rat serum", "result": "4.960 ± 0.338", "unit": "nmol/mL"},
      {"measurement": "SOD", "setting": "[3]; rat serum", "result": "140.36 ± 14.00", "unit": "U/ml"},
      {"measurement": "MIS (myocardial infarct size)", "setting": "[3]", "result": "4.07 ± 1.56", "unit": "%"},
      {"measurement": "MIS (myocardial infarct size)", "setting": "[4]; ischemic area weight/whole heart weight", "result": "4.19 ± 0.70", "unit": "%"},
      {"measurement": "CK", "setting": "[4]; rat serum", "result": "2.087 ± 0.432", "unit": "U/ml"},
      {"measurement": "LDH", "setting": "[4]; rat serum", "result": "7376.09 ± 784.64", "unit": "U/L"},
      {"measurement": "MDA", "setting": "[4]; rat serum", "result": "4.755 ± 0.718", "unit": "nmol/mL"},
      {"measurement": "SOD", "setting": "[4]; rat serum", "result": "135.63 ± 7.878", "unit": "U/ml"}
    ]}
  ]
}
